# Where a name gives a salt, the structure may show the parent alone.
# Molecular target: T1, FGFR1 kinase (Homo sapiens, UniProt P11362)
# T1 construct: purchased Upstate, USA
# Assay: TR-FRET assay with FGFR1 kinase
# Format: biochemical
# Details: 13 μM ATP; for IC50: dose response, read-out: IC50 of FGFR1 inhibition; for Inhibition (%) of FGFR1 at 1000 nM / inhibition at 1 µM: compound at 1000 nM
# Method: 1. Inhibition of FGFR1 kinase
# Compounds were screened in the TR-FRET assay with FGFR1 kinase. 5 ng of FGFR1 [Upstate, USA] kinase was used for assay. The compound was incubated with the kinase for 30 minutes at room temperature. After the incubation, substrate mix [40 nM Ultra light poly GT (Perkin Elmer, USA) and 13 μM ATP (Sigma)] was added. The above reaction was stopped by the addition of 40 mM EDTA after the 30 min kinase reaction. The Eu-labelled antiphospho-tyrosine antibody [Perkin Elmer, USA] was added at 0.5 nM and the fluorescence emission at 615 nm/665 nm [excitation at 340 nm] was measured. The compounds were initially screened at 100 nM and 1 μM concentrations. The compounds with >50% inhibition at 100 nM of FGFR1 were taken for the full dose response studies. The final DMSO concentration in the assay was 1%. For IC50 determination, ⅓^rd serial dilution was made from the 20 mM DMSO stock solution. 2 μl of these were transferred to the test wells containing […] of the reaction mixture [total reaction volume 20 μl]. The fluorescence was measured in Perkin Elmer Wallac 1420 Multilabel Counter Victor 3. The IC50 was determined by fitting the dose response data to sigmoidal curve fitting equation using GraphPad Prism software V5.
# T1 sequence (P11362 22-822): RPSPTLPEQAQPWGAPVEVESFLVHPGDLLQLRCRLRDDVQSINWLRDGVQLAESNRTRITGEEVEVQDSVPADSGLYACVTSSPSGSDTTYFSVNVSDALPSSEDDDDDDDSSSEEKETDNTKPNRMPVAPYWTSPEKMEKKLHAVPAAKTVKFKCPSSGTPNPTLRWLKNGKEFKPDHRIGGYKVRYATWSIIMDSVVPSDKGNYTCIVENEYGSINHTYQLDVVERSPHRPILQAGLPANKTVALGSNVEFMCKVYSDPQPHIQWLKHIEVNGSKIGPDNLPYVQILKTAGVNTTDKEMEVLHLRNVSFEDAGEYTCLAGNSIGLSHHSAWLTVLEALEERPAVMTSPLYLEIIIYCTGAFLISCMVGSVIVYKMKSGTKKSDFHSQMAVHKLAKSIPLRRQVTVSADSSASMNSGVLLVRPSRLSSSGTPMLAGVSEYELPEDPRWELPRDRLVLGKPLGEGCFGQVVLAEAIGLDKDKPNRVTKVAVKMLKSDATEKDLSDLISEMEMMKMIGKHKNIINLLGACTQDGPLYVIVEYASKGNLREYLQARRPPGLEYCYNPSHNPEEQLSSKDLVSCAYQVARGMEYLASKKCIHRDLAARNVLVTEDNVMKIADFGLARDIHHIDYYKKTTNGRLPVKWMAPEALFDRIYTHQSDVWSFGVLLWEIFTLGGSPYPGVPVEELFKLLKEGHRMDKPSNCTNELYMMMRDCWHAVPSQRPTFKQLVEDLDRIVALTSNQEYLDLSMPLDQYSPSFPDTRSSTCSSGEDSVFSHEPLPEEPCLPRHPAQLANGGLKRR
SMILES,IC50,Inhibition (%) of FGFR1 at 1000 nM,inhibition at 1 µM
"Cn1cc(-c2ccc3c(c2)ncn3-c2cc(-c3ccccc3F)cc(NS(=O)(=O)C3CC3)n2)cn1 [Example 8, N-(4-(2-fluorophenyl)-6-(5-(1-methyl-1H-pyrazol-4-yl)-1H-benzo[d]imidazol-1-yl)pyridin-2-yl)cyclopropanesulfonamide]",5.42 nM,–,99%
"O=S(=O)(Nc1cc(-c2ccc(F)cc2F)cc(-n2cnc3cc(-c4cnn(C5CCNC5)c4)ccc32)n1)C1CC1 (stereo not shown) [Example 34, N-(4-(2,4-difluorophenyl)-6-(5-(1-(pyrrolidin-3-yl)-1H-pyrazol-4-yl)-1H-benzo[d]imidazol-1-yl)pyridin-2-yl)cyclopropanesulfonamide]",1.6 nM,–,99%
"CC(C)S(=O)(=O)Nc1cc(-c2ccc(F)cc2F)cc(-n2cnc3cc(-c4cnn(C)c4)ccc32)n1 [Example 6 (imido), Imido form of N-(4-(2,4-difluorophenyl)-6-(5-(1-methyl-1H-pyrazol-4-yl)-1H-benzo[d]imidazol-1-yl)pyridin-2-yl)propane-2-sulfonamide]",1.7 nM,98%,–
"Cn1cc(-c2ccc3c(c2)ncn3-c2cc(-c3ccc(F)cc3F)cc(NS(=O)(=O)C3CC3)n2)nn1 [Example 36, N-(4-(2,4-difluorophenyl)-6-(5-(1-methyl-1H-1,2,3-triazol-4-yl)-1H-benzo[d]-imidazol-1-yl)pyridin-2-yl)cyclopropanesulfonamide]",4.7 nM,–,99%
"CC(C)S(=O)(=O)Nc1cc(-c2ccccc2F)cc(-n2cnc3cc(-c4cnn(C)c4)ccc32)n1 [Example 12 (imido), Sodium salt of imido form of N-(4-(2-fluorophenyl)-6-(5-(1-methyl-1H-pyrazol-4-yl)-1H-benzo[d]imidazol-1-yl)pyridin-2-yl)propane-2-sulfonamide]",5.2 nM,99%,–
"Cn1cc(-c2ccc3c(c2)ncn3-c2cc(-c3ncc(F)cc3F)cc(NS(=O)(=O)C3CC3)n2)cn1 [Example 25, N-(3,5-difluoro-6′-(5-(1-methyl-1H-pyrazol-4-yl)-1H-benzo[d]imidazol-1-yl)-[2,4′-bipyridin]-2′-yl)cyclopropanesulfonamide]",3.1 nM,–,97%
"Cn1cc(-c2ccc3c(c2)ncn3-c2cc(NS(=O)(=O)C3CC3)nc(-c3ccc(F)cc3F)c2)cn1 [Example 43, N-(6-(2,4-difluorophenyl)-4-(5-(1-methyl-1H-pyrazol-4-yl)-1H-benzo[d]-imidazol-1-yl)pyridin-2-yl)cyclopropanesulfonamide]",43.4 nM,–,94%
"CCS(=O)(=O)Nc1cc(-c2ccccc2F)cc(-n2cnc3cc(-c4cnn(C)c4)ccc32)n1 [Example 11, N-(4-(2-fluorophenyl)-6-(5-(1-methyl-1H-pyrazol-4-yl)-1H-benzo[d]imidazol-1-yl)pyridin-2-yl)ethanesulfonamide]",2.8 nM,–,98%
"CCOC(=O)c1cn(-c2ccc3c(c2)ncn3-c2cc(-c3ccc(F)cc3F)cc(NS(=O)(=O)C3CC3)n2)nn1 [Example 39, Ethyl 1-(1-(6-(cyclopropanesulfonamido)-4-(2,4-difluorophenyl)pyridin-2-yl)-1H-benzo[d]imidazol-5-yl)-1H-1,2,3-triazole-4-carboxylate]",294 nM,–,81%
"CC(=O)Nc1cc(-c2ncc(F)cc2F)cc(-n2cnc3cc(-c4cnn(C)c4)ccc32)n1 [Example 26, N-(3,5-difluoro-6′-(5-(1-methyl-1H-pyrazol-4-yl)-1H-benzo[d]imidazol-1-yl)-[2,4′-bipyridin]-2′-yl)acetamide]",21.9 nM,–,94%

# The next lines start with the values.
IC50,Inhibition (%) of FGFR1 at 1000 nM,inhibition at 1 µM,SMILES
3.3 nM,97%,–,"Cn1cc(-c2ccc3c(c2)ncn3-c2cc(-c3ccc(F)cc3F)cc(NS(=O)(=O)C3CC3)n2)cn1 [Example 2 (imido), Sodium salt of imido form of N-(4-(2,4-difluorophenyl)-6-(5-(1-methyl-1H-pyrazol-4-yl)-1H-benzo[d]imidazol-1-yl)pyridin-2-yl)cyclopropanesulfonamide]"
3.7 nM,–,99%,"CN(C)CCn1cc(-c2ccc3c(c2)ncn3-c2cc(-c3ccc(F)cc3F)cc(NS(=O)(=O)C3CC3)n2)cn1 [Example 21, N-(4-(2,4-difluorophenyl)-6-(5-(1-(2-(dimethylamino)ethyl)-1H-pyrazol-4-yl)-1H-benzo[d]imidazol-1-yl)pyridin-2-yl)cyclopropanesulfonamide]"
2 nM,–,99%,"O=S(=O)(Nc1cc(-c2ccc(F)cc2F)cc(-n2cnc3cc(-c4cnn(CCN5CCOCC5)c4)ccc32)n1)C1CC1 [Example 33, N-(4-(2,4-difluorophenyl)-6-(5-(1-(2-morpholinoethyl)-1H-pyrazol-4-yl)-1H-benzo[d]imidazol-1-yl)pyridin-2-yl)cyclopropanesulfonamide]"
4.4 nM,98%,–,"CCS(=O)(=O)Nc1cc(-c2ccc(F)cc2F)cc(-n2cnc3cc(-c4cnn(C)c4)ccc32)n1 [Example 5 (imido), Sodium salt of imido form of N-(4-(2,4-difluorophenyl)-6-(5-(1-methyl-1H-pyrazol-4yl)-1H-benzo[d]imidazol-1-yl)pyridin-2-yl)ethanesulfonamide]"

# Reference: patent US20160031855A1, “PROTEIN KINASE INHIBITORS” (ORION CORPORATION, priority 2013, published 2016)
